This passage reports EC50 results from patent US8574563B2 (Bristol-Myers Squibb Company, priority 2006, dated 2013).

This test has as its system HCV 1b-377-neo replicon cells. As to the kind of experiment: HCV replicon assay, HCV 1b-377-neo replicon cells (1b FRET). In kind it is cell-based, Hepatitis C virus genotype 1b. The following applies: Hepatitis C virus, HCV 1b-377-neo replicon cells; HCV 1b genotype; read-out: EC50 range against HCV 1b (Table 2, Range). A digest of the protocol: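 Compounds tested in HCV genotype 1b-377-neo replicon cells with a FRET read-out. Cells resistant to a reference NS5A inhibitor through a Y2065H NS5A mutation were run alongside wild-type cells.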

Turning to `CN(C)[C@@H](C(=O)N1CCC[C@H]1c1ncc(-c2ccc(-c3ccc(-c4cnc([C@@H]5CCCN5C(=O)[C@@H](c5ccccc5)N(C)C)[nH]4)nc3)cc2)[nH]1)c1ccccc1` [Example 146, (1R)-2-((2S)-2-(5-(5-(4-(2-((2S)-1-((2R)-2-(dimethylamino)-2-phenylacetyl)-2-pyrrolidinyl)-1H-imidazol-5-yl)phenyl)-2-pyridinyl)-1H-imidazol-2-yl)-1-pyrrolidinyl)-N,N-dimethyl-2-oxo-1-phenylethanamine], the half-maximal effective concentration (EC50) fell in the range of 0.001 to 0.999 nM.

On to `COC(=O)N[C@@H](C(=O)N1CCC[C@H]1c1ncc(-c2ccc(-c3ccc(-c4cnc([C@@H]5CCCN5C(=O)[C@H](NC(=O)OC)c5ccccc5)[nH]4)nc3)cc2)[nH]1)c1ccccc1` [Example 147, methyl ((1R)-2-((2S)-2-(5-(5-(4-(2-((2S)-1-((2R)-2-((methoxycarbonyl)amino)-2-phenylacetyl)-2-pyrrolidinyl)-1H-imidazol-5-yl)phenyl)-2-pyridinyl)-1H-imidazol-2-yl)-1-pyrrolidinyl)-2-oxo-1-phenylethyl)carbamate], for which the concentration giving a half-maximal response (EC50) lay in the range of 0.001 to 0.999 nM.

Regarding `CN(C)[C@@H](C(=O)N1CSC[C@H]1c1ncc(-c2ccc(-c3ccc(-c4cnc([C@@H]5CSCN5C(=O)[C@@H](c5ccccc5)N(C)C)[nH]4)cc3)cc2)[nH]1)c1ccccc1` [Example 148, (1R,1′R)-2,2′-(4,4′-biphenyldiylbis(1H-imidazole-5,2-diyl(4R)-1,3-thiazolidine-4,3-diyl))bis(N,N-dimethyl-2-oxo-1-phenylethanamine)], the EC50 was 1 to 99 nM.

With `COC(=O)N[C@@H](C(=O)N1CSC[C@H]1c1ncc(-c2ccc(-c3ccc(-c4cnc([C@@H]5CSCN5C(=O)[C@H](NC(=O)OC)c5ccccc5)[nH]4)cc3)cc2)[nH]1)c1ccccc1` [Example 149, dimethyl (4,4′-biphenyldiylbis(1H-imidazole-5,2-diyl(4R)-1,3-thiazolidine-4,3-diyl((1R)-2-oxo-1-phenyl-2,1-ethanediyl)))biscarbamate], the EC50 was in the range of 0.001 to 0.999 nM.

In the case of `O=C([C@H]1CCCO1)N1CSC[C@H]1c1ncc(-c2ccc(-c3ccc(-c4cnc([C@@H]5CSCN5C(=O)[C@H]5CCCO5)[nH]4)cc3)cc2)[nH]1` [Example 150, (4R,4′R)-4,4′-(4,4′-biphenyldiylbis(1H imidazole-5,2-diyl))bis(3-((2R)-tetrahydro-2-furanylcarbonyl)-1,3-thiazolidine)], the EC50 was in the range of 1 to 99 nM.

`CN(C)[C@@H](C(=O)N1CCC[C@H]1c1ncc(-c2ccc(-c3ncc(-c4cnc([C@@H]5CCCN5C(=O)[C@@H](c5ccccc5)N(C)C)[nH]4)cn3)cc2)[nH]1)c1ccccc1` [Example 152j-1, (1R)-2-((2S)-2-(5-(2-(4-(2-((2S)-1-((2R)-2-(dimethylamino)-2-phenylacetyl)-2-pyrrolidinyl)-1H-imidazol-5-yl)phenyl)-5-pyrimidinyl)-1H-imidazol-2-yl)-1-pyrrolidinyl)-N,N-dimethyl-2-oxo-1-phenylethanamine]: the EC50 was 1 to 99 nM.

As to `COC(=O)N[C@@H](C(=O)N1CCC[C@H]1c1ncc(-c2ccc(-c3ncc(-c4cnc([C@@H]5CCCN5C(=O)[C@H](NC(=O)OC)c5ccccc5)[nH]4)cn3)cc2)[nH]1)c1ccccc1` [Example 152j-2, methyl ((1R)-2-((2S)-2-(5-(2-(4-(2-((2S)-1-((2R)-2-((methoxycarbonyl)amino)-2-phenylacetyl)-2-pyrrolidinyl)-1H-imidazol-5-yl)phenyl)-5-pyrimidinyl)-1H-imidazol-2-yl)-1-pyrrolidinyl)-2-oxo-1-phenylethyl)carbamate], the EC50 is 0.001 to 0.999 nM.

`COC(=O)N[C@@H](C(=O)N1CCC[C@H]1c1ncc(-c2ccc(-c3ncc(-c4cnc([C@@H]5CCCN5C(=O)Cc5cccnc5)[nH]4)cn3)cc2)[nH]1)c1ccccc1` [Example 152j-3, methyl ((1R)-2-oxo-1-phenyl-2-((2S)-2-(5-(4-(5-(2-((2S)-1-(3-pyridinylacetyl)-2-pyrrolidinyl)-1H-imidazol-5-yl)-2-pyrimidinyl)phenyl)-1H-imidazol-2-yl)-1-pyrrolidinyl)ethyl)carbamate]: the EC50 was in the range of 0.001 to 0.999 nM.

As for `O=C([C@@H](c1ccccc1)N1CCCCC1)N1CCC[C@H]1c1ncc(-c2ccc(-c3ncc(-c4cnc([C@@H]5CCCN5C(=O)[C@@H](c5ccccc5)N5CCCCC5)[nH]4)cn3)cc2)[nH]1` [Example 152j-5, 5-(2-((2S)-1-((2R)-2-phenyl-2-(1-piperidinyl)acetyl)-2-pyrrolidinyl)-1H-imidazol-5-yl)-2-(4-(2-((2S)-1-((2R)-2-phenyl-2-(1-piperidinyl)acetyl)-2-pyrrolidinyl)-1H-imidazol-4-yl)phenyl)pyrimidine], the concentration giving a half-maximal response (EC50) lay within 0.001 to 0.999 nM.

In the case of `C[C@@H](c1ncc(-c2ccc(-c3ncc(-c4cnc([C@@H]5CCCN5C(=O)[C@@H](c5ccccc5)N5CCCCC5)[nH]4)cn3)cc2)[nH]1)N(C)C(=O)[C@@H](c1ccccc1)N1CCCCC1` [Example 152j-6, (2R)-N-methyl-2-phenyl-N-((1S)-1-(4-(4-(5-(2-((2S)-1-((2R)-2-phenyl-2-(1-piperidinyl)acetyl)-2-pyrrolidinyl)-1H-imidazol-5-yl)-2-pyrimidinyl)phenyl)-1H-imidazol-2-yl)ethyl)-2-(1-piperidinyl)acetamide], the EC50 lay in the range of 0.001 to 0.999 nM.

As for `CN(C)[C@@H](C(=O)N1CCC[C@H]1c1ncc(-c2ccc(-c3cnc(-c4cnc([C@@H]5CCCN5C(=O)[C@@H](c5ccccc5)N(C)C)[nH]4)cn3)cc2)[nH]1)c1ccccc1` [Example 152j-7, (1R)-2-((2S)-2-(5-(5-(4-(2-((2S)-1-((2R)-2-(dimethylamino)-2-phenylacetyl)-2-pyrrolidinyl)-1H-imidazol-5-yl)phenyl)-2-pyrazinyl)-1H-imidazol-2-yl)-1-pyrrolidinyl)-N,N-dimethyl-2-oxo-1-phenylethanamine], the EC50 lay within 1 to 99 nM.

With `COC(=O)N[C@@H](C(=O)N1CCC[C@H]1c1ncc(-c2ccc(-c3cnc(-c4cnc([C@@H]5CCCN5C(=O)[C@H](NC(=O)OC)c5ccccc5)[nH]4)cn3)cc2)[nH]1)c1ccccc1` [Example 152j-8, methyl ((1R)-2-((2S)-2-(5-(5-(4-(2-((2S)-1-((2R)-2-((methoxycarbonyl)amino)-2-phenylacetyl)-2-pyrrolidinyl)-1H-imidazol-5-yl)phenyl)-2-pyrazinyl)-1H-imidazol-2-yl)-1-pyrrolidinyl)-2-oxo-1-phenylethyl)carbamate], the EC50 lay in the range of 0.001 to 0.999 nM.

Take `CN(C)[C@@H](C(=O)N1CCC[C@H]1c1ncc(-c2ccc(-c3ccc(-c4cnc([C@@H]5CCCN5C(=O)[C@@H](c5ccccc5)N(C)C)[nH]4)nn3)cc2)[nH]1)c1ccccc1` [Example 152j-9, (1R)-2-((2S)-2-(5-(6-(4-(2-((2S)-1-((2R)-2-(dimethylamino)-2-phenylacetyl)-2-pyrrolidinyl)-1H-imidazol-5-yl)phenyl)-3-pyridazinyl)-1H-imidazol-2-yl)-1-pyrrolidinyl)-N,N-dimethyl-2-oxo-1-phenylethanamine]: the concentration for a half-maximal effect (EC50) is 1 to 99 nM.

`COC(=O)N[C@@H](C(=O)N1CCC[C@H]1c1ncc(-c2ccc(-c3ccc(-c4cnc([C@@H]5CCCN5C(=O)[C@H](NC(=O)OC)c5ccccc5)[nH]4)nn3)cc2)[nH]1)c1ccccc1` [Example 152j-10]: the EC50 was 1 to 99 nM.

As to `C[C@H](NC(=O)[C@@H](c1ccccc1)N(C)C)c1ncc(-c2ccc(-c3ccc(-c4cnc([C@@H]5CCCN5C(=O)[C@@H](c5ccccc5)N(C)C)[nH]4)cn3)cc2)[nH]1` [Example 152j-11, (2R)-2-(dimethylamino)-N-((1S)-1-(5-(4-(5-(2-((2S)-1-((2R)-2-(dimethylamino)-2-phenylacetyl)-2-pyrrolidinyl)-1H-imidazol-5-yl)-2-pyridinyl)phenyl)-1H-imidazol-2-yl)ethyl)-2-phenylacetamide], the EC50 was 0.001 to 0.999 nM.

Turning to `COC(=O)N[C@@H](C(=O)N[C@@H](C)c1ncc(-c2ccc(-c3ccc(-c4cnc([C@@H]5CCCN5C(=O)[C@H](NC(=O)OC)c5ccccc5)[nH]4)cn3)cc2)[nH]1)c1ccccc1` [Example 152j-12, methyl ((1R)-2-((2S)-2-(5-(6-(4-(2-((1S)-1-(((2R)-2-((methoxycarbonyl)amino)-2-phenylacetyl)amino)ethyl)-1H-imidazol-5-yl)phenyl)-3-pyridinyl)-1H-imidazol-2-yl)-1-pyrrolidinyl)-2-oxo-1-phenylethyl)carbamate], the EC50 is 0.001 to 0.999 nM.

For `C[C@H](NC(=O)[C@@H](c1ccccc1)N(C)C)c1ncc(-c2ccc(-c3ccc(-c4cnc([C@@H]5CCCN5C(=O)[C@@H](c5ccccc5)N(C)C)[nH]4)nn3)cc2)[nH]1` [Example 152j-13, (2R)-2-(dimethylamino)-N-((1S)-1-(5-(4-(6-(2-((2S)-1-((2R)-2-(dimethylamino)-2-phenylacetyl)-2-pyrrolidinyl)-1H-imidazol-5-yl)-3-pyridazinyl)phenyl)-1H-imidazol-2-yl)ethyl)-2-phenylacetamide], the EC50 was 1 to 99 nM.

For `COC(=O)N[C@@H](C(=O)N[C@@H](C)c1ncc(-c2ccc(-c3ccc(-c4cnc([C@@H]5CCCN5C(=O)[C@H](NC(=O)OC)c5ccccc5)[nH]4)nn3)cc2)[nH]1)c1ccccc1` [Example 152j-14, methyl ((1R)-2-((2S)-2-(5-(6-(4-(2-((1S)-1-(((2R)-2-((methoxycarbonyl)amino)-2-phenylacetyl)amino)ethyl)-1H-imidazol-5-yl)phenyl)-3-pyridazinyl)-1H-imidazol-2-yl)-1-pyrrolidinyl)-2-oxo-1-phenylethyl)carbamate], the concentration giving a half-maximal response (EC50) lay within 1 to 99 nM.

On to `COC(=O)N[C@@H](C(=O)N[C@@H](C)c1ncc(-c2ccc(-c3ncc(-c4cnc([C@@H]5CCCN5C(=O)[C@H](NC(=O)OC)c5ccccc5)[nH]4)cn3)cc2)[nH]1)c1ccccc1` [Example 152j-15, methyl ((1R)-2-((2S)-2-(5-(2-(4-(2-((1S)-1-(((2R)-2-((methoxycarbonyl)amino)-2-phenylacetyl)amino)ethyl)-1H-imidazol-5-yl)phenyl)-5-pyrimidinyl)-1H-imidazol-2-yl)-1-pyrrolidinyl)-2-oxo-1-phenylethyl)carbamate], for which the EC50 fell in the range of 0.001 to 0.999 nM.
